Laboratory results published in paper PMC12580772, “A First-in-Human Study of ATM Inhibitor Lartesertib as Monotherapy in Patients with Advanced Solid Tumors” (Clinical Cancer Research, 2025).

Columns and labels:
γ-H2AX = assay: PD analysis: γ-H2AX in CD45+ lymphocytes after ex vivo bleomycin stimulation, flow cytometry; set-up: species or system human; conditions: 2, 4, 6 hours on Day 1, sustained Day 2 at 2 to 4 hours, all four DLs
Procedure: The PD analyses in blood were conducted using samples collected during Cycle 1 at the following time points: Day 1, pre-dose, and post-dose at 2, 4, and 6 hours; Day 2 at pre-dose and post-dose at 2 to 4 hours; and Day 22 at pre-dose and post-dose at 2 and 4 hours. These samples were analyzed to assess levels of the PD biomarker, γ-H2AX, a phosphorylated histone variant known to represent an early and sensitive marker of DSB response ([18]). Each sample was stimulated ex vivo with bleomycin, a DNA DSB inducer that activates ATM function, or with phosphate-buffered saline as a negative control. γ-H2AX was subsequently measured in the CD45^+ lymphocyte fraction by flow cytometry.

advanced solid tumors = assay: Efficacy: tumor response and PFS by RECIST version 1.1; type: in vivo, human
Text: The primary endpoints were the occurrence of DLTs, adverse events (AE), and treatment-related and treatment-emergent AEs (TEAE), along with the occurrence of clinically significant changes in vital signs, laboratory parameters, and 12-lead electrocardiogram findings. The secondary endpoints included PK parameters of lartesertib in plasma after single and multiple doses; establishment of the recommended dose for expansion based on safety, PK, and PD data; absolute and relative changes overtime from baseline in ATM pathway readouts assessed by flow cytometry and immunohistochemistry; and objective response, duration of response, and progression-free survival (PFS) according to the RECIST version 1.1, as assessed by the investigator. Exploratory endpoints included the correlation of baseline and on-treatment biomarkers with response to lartesertib treatment as well as relative changes in total blood cell count, immune cells, and circulatory factors during exposure to lartesertib.
For the efficacy analysis, the proportion of patients with objective response, defined as radiologic complete response (CR) + partial response, was tabulated, and the 95% confidence interval (CI) was estimated using the Clopper–Pearson method. PFS was estimated using the Kaplan–Meier method. The median PFS time and rate estimates at 3, 6, and 12 months, as well as every 6 months thereafter, were also summarized.

[1] = system: cancer cell lines (head and neck, colon, lung, gastric, breast, and melanoma); set-up: method as in PMID 35405736; conditions: in vitro; cited from earlier work
[2] = system: human squamous cell carcinoma of the head and neck FaDu xenograft; set-up: method as in PMID 35405736; conditions: in combination with radiation; cited from earlier work
[3] = system: MiaPaCa2 pancreatic cancer model; set-up: method as in PMID 37079339; conditions: combination with the ATR inhibitor gartisertib; cited from earlier work
[4] = system: acute myeloid leukemia model Mv4.11; set-up: method as in PMID 37079339; conditions: combination with the ATR inhibitor gartisertib; cited from earlier work
[5] = system: HBC-x9 triple-negative breast cancer model; set-up: method as in PMID 35405736; conditions: combined with PARP inhibitors (rucaparib or niraparib), wild-type BRCA1/2; cited from earlier work

COc1cc2ncc3c(c2cc1-c1cn(C)nc1C)n(-c1c(F)cncc1OC)c(=O)n3C [lartesertib]
γ-H2AX target inhibition over time (γ-H2AX): trend of increasing lartesertib target inhibition
Best overall response: Non-complete response/non-progressive disease (advanced solid tumors; 100 mg n = 2): 1 (50.0) n (%)
Best overall response: Not evaluable (advanced solid tumors; 100 mg n = 2): 1 (50.0) n (%)
Best overall response: Progressive disease (advanced solid tumors; 100 mg n = 2): 0 (0.0) n (%)
Best overall response: Stable disease (advanced solid tumors; 100 mg n = 2): 0 (0.0) n (%)
Progressive disease/Deaths (PFS events) (advanced solid tumors; 100 mg n = 2): 0 (0.0) n (%)
PFS, median (min, max) (advanced solid tumors; 100 mg n = 2, NC, noncalculable): NC (1.2,4.0)
Best overall response: Non-complete response/non-progressive disease (advanced solid tumors; 200 mg n = 7): 0 (0.0) n (%)
Best overall response: Not evaluable (advanced solid tumors; 200 mg n = 7): 2 (28.6) n (%)
Best overall response: Progressive disease (advanced solid tumors; 200 mg n = 7): 5 (71.4) n (%)
Best overall response: Stable disease (advanced solid tumors; 200 mg n = 7): 0 (0.0) n (%)
PFS, median (min, max) (advanced solid tumors; 200 mg n = 7): 1.1 (0.0, 1.6) months
Progressive disease/Deaths (PFS events) (advanced solid tumors; 200 mg n = 7): 6 (85.7) n (%)
Best overall response: Non-complete response/non-progressive disease (advanced solid tumors; 300 mg n = 9): 0 (0.0) n (%)
Best overall response: Not evaluable (advanced solid tumors; 300 mg n = 9): 2 (22.2) n (%)
Best overall response: Progressive disease (advanced solid tumors; 300 mg n = 9): 6 (66.7) n (%)
Best overall response: Stable disease (advanced solid tumors; 300 mg n = 9): 1 (11.1) n (%)
PFS, median (min, max) (advanced solid tumors; 300 mg n = 9): 1.3 (0.0, 4.1) months
Progressive disease/Deaths (PFS events) (advanced solid tumors; 300 mg n = 9): 7 (77.8) n (%)
Best overall response: Non-complete response/non-progressive disease (advanced solid tumors; 400 mg n = 4): 0 (0.0) n (%)
Best overall response: Not evaluable (advanced solid tumors; 400 mg n = 4): 2 (50.0) n (%)
Best overall response: Progressive disease (advanced solid tumors; 400 mg n = 4): 1 (25.0) n (%)
Progressive disease/Deaths (PFS events) (advanced solid tumors; 400 mg n = 4): 1 (25.0) n (%)
PFS, median (min, max) (advanced solid tumors; 400 mg n = 4, NC, noncalculable): NC (0.0, 2.8)
Best overall response: Non-complete response/non-progressive disease (advanced solid tumors; Total N = 22): 1 (4.5) n (%)
Best overall response: Not evaluable (advanced solid tumors; Total N = 22): 7 (31.8) n (%)
Best overall response: Progressive disease (advanced solid tumors; Total N = 22): 12 (54.5) n (%)
Best overall response: Stable disease (advanced solid tumors; Total N = 22): 2 (9.1) n (%)
PFS, median (min, max) (advanced solid tumors; Total N = 22): 1.3 (0.0, 4.1) months
Progressive disease/Deaths (PFS events) (advanced solid tumors; Total N = 22): 14 (63.6) n (%)
Median PFS (advanced solid tumors; all patients, Kaplan–Meier): 1.3 (95% CI, 0.99–1.58) months
Best overall response stable disease (advanced solid tumors; of 22 patients): 9.1%
Progressive disease (advanced solid tumors; of 22 patients): 54.5%
Non-CR/non–progressive disease (advanced solid tumors; of 22 patients, prostate gland cancer): 4.5%
Duration of stable disease (advanced solid tumors; patient with nasopharyngeal cancer): 120 days
Radiotherapy sensitivity of cancer cell lines [1]: enhances the radiotherapy sensitivity
Antitumor response [2]: significant dose-dependent antitumor responses
Tumor growth [3]: complete tumor growth inhibition
Tumor growth [4]: almost complete tumor regression
Efficacy and tolerability [5]: enhanced efficacy and acceptable tolerability
